Consider 46 compounds from US8450354B2, “Substituted imidazo[1,2-b]pyridazine derivatives, pharmaceutical compositions, and methods of use as β-secretase inhibitors” (High Point Pharmaceuticals, LLC, priority 2010, dated 2013).

Molecules are shown by their SMILES.

This assay deals with T1, BACE-1 enzyme (Homo sapiens, UniProt P56817).
T1 construct: purchased R & D Systems 931AS
T1 sequence (P56817 46-457 limits assumed): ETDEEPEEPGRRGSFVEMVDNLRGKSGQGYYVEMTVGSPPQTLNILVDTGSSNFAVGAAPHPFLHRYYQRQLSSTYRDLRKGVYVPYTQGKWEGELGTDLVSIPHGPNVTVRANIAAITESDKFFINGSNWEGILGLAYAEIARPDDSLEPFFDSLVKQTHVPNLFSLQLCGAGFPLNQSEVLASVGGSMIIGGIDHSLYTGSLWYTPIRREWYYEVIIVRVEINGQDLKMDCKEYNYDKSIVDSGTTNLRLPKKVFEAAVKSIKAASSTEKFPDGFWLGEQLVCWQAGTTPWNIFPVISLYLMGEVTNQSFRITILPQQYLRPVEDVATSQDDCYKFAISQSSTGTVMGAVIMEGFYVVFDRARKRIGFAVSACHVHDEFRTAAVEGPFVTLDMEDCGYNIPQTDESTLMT
As to the kind of experiment: BACE Fluorescence Resonance Energy Transfer (FRET) Assay. It counts as biochemical. The settings on record: pH 4-4.5, 30 min pre-incubation, about 1.5 hours reaction, asterisk = mean. On the procedure:
BACE Fluorescence Resonance Energy Transfer (FRET) Assay
In the following assay, the proteolytic activity of BACE is measured by observing cleavage of a fluorescent group from a peptide substrate containing a rhodamine fluorescent donor and a quenching acceptor.
The inhibitory activity of compounds of Formula (I) may be compared to a statine derived control inhibitor STA200 (MP Biomedical Cat. #STA-200). The cleavage reaction occurs when a BACE-1 substrate (Invitrogen, Cat. #P2986) was added to a reaction mixture containing BACE-1 enzyme (R & D Systems, Cat. #931AS) and allowed to proceed for about 1.5 hours. Fluorescence, used as a marker of BACE activity, is monitored using 540 nm excitation and 585 nm emission wavelengths (Envision, Perkin Elmer).
A typical assay reaction contains BACE-1 enzyme-in assay buffer (50 mM sodium acetate, pH 4-4.5, 0.01% CHAPS (3-[(3-Cholamidopropyl)dimethylammonio]-1-propanesulfonate), 0.0125% TritonX-100, 0.006% EDTA) which is pre-incubated for 30 minutes with test compound in 7.5% DMSO. The reaction is initiated with the addition of BACE-1 substrate in assay buffer and allowed to proceed for about 1.5 hours at room temperature. Assays are conducted in black 384-well microtiter plates and scanned at room temperature using 540 nm excitation and 585 nm emission wavelengths.
In some instances, the percent inhibition at a given concentration is reported instead of the IC50.
Compound `N[C@H]1CCN(c2ccc3nc(C(=O)Nc4nc5cc(-c6cccc(C(F)(F)F)c6)ccc5[nH]4)cn3n2)C1` [Example 77] returned an IC50 of 0.242 µM.

The compound `CC(C)(C)NCCOc1ccc2nc(C(=O)Nc3nc4cc(-c5cccc(OC(F)(F)F)c5)ccc4[nH]3)cn2n1` [Example 30] gave an IC50 of 0.27 µM.

Compound `O=C(Nc1nc2cc(-c3cccc(C(F)(F)F)c3)ccc2[nH]1)c1cn2nc(N3CCNCC3)ccc2n1` [Example 80] showed an IC50 of 0.2 µM.

As to `CN1CCC(Oc2ccc3nc(C(=O)Nc4nc5cc(-c6cc(F)cc(Cl)c6)ccc5[nH]4)cn3n2)CC1` [Example 18], the concentration for half-maximal inhibition (IC50) was 0.219 µM.

On to `COc1ccc2nc(C(=O)Nc3nc4cc(OCc5ccccc5)ccc4[nH]3)cn2n1` [Example 4], for which half-maximal inhibition (IC50) required 0.105 µM.

In the case of `CC1(C)CCC(c2ccc3[nH]c(NC(=O)c4cn5nc(OC6CCC(O)CC6)ccc5n4)nc3c2)CC1` (stereo not shown) [Example 88], it took 0.476 µM to reach half-maximal inhibition (IC50).

`O=C(Nc1nc2cc(-c3cccc(C(F)(F)F)c3)ccc2[nH]1)c1cn2nc(O[C@H]3CCCNC3)ccc2n1` [Example 75] came in with an IC50 of 0.36 µM.

Turning to `NCCOc1ccc2nc(C(=O)Nc3nc4cc(-c5cccc(C(F)(F)F)c5)ccc4[nH]3)cn2n1` [Example 60], inhibition was half-maximal at 0.14 µM (IC50).

Regarding `COC1CCN(c2ccc3nc(C(=O)Nc4nc5cc(C6CCC(C)(C)CC6)ccc5[nH]4)cn3n2)CC1` [Example 87], the IC50 was determined as 0.56 µM.

The compound `CO[C@@H]1CCN(c2ccc3nc(C(=O)Nc4nc5cc(C6CCC(C)(C)CC6)ccc5[nH]4)cn3n2)C1` [Example 89] had a half-maximal inhibitory concentration (IC50) of 0.16 µM.

As to `C[C@@H](CO)Oc1ccc2nc(C(=O)Nc3nc4cc(-c5cccc(OC(F)(F)F)c5)ccc4[nH]3)cn2n1` [Example 103], the 50% inhibitory concentration (IC50) worked out at 0.334 µM.

Turning to `O=C(Nc1nc2cc(-c3cc(F)cc(Cl)c3)ccc2[nH]1)c1cn2nc(OCCNC3CCCCC3)ccc2n1` [Example 51], the IC50 was 0.173 µM.

The compound `CN(C)CC(O)COc1ccc2nc(C(=O)Nc3nc4cc(-c5cccc(C(F)(F)F)c5)ccc4[nH]3)cn2n1` (stereo not shown) [Example 110] displayed a half-maximal inhibitory concentration (IC50) of 0.268 µM.

On to `O=C(Nc1nc2cc(-c3cc(F)cc(Cl)c3)ccc2[nH]1)c1cn2nc(OCC[C@@H](O)CO)ccc2n1` [Example 129], for which the 50% inhibitory concentration (IC50) was found to be 0.293 µM.

In turn, `CCOCCOCCOc1ccc2nc(C(=O)Nc3nc4cc(-c5cccc(C(F)(F)F)c5)ccc4[nH]3)cn2n1` [Example 11] displayed an IC50 of 0.32 µM.

`CN(C)CCOCCOc1ccc2nc(C(=O)Nc3nc4cc(-c5cccc(OC(F)(F)F)c5)ccc4[nH]3)cn2n1` [Example 56] returned an IC50 of 0.176 µM.

As for `N[C@@H]1CCN(c2ccc3nc(C(=O)Nc4nc5cc(-c6cccc(C(F)(F)F)c6)ccc5[nH]4)cn3n2)C1` [Example 76], the IC50 is 0.23 µM.

Compound `Cc1ccc2nc(C(=O)Nc3nc4cc(OCc5ccccc5)ccc4[nH]3)cn2n1` [Example 6] came in with a half-inhibitory concentration (IC50) of 0.244 µM.

`O=C(Nc1nc2cc(-c3cccc(C(F)(F)F)c3)ccc2[nH]1)c1cn2nc(OCCNC3CCCCC3)ccc2n1` [Example 39]: the IC50 was determined as 0.197 µM.

Consider `CC(C)(C)NCCOc1ccc2nc(C(=O)Nc3nc4cc(-c5cc(F)cc(Cl)c5)ccc4[nH]3)cn2n1` [Example 52], for which the IC50 worked out at 0.223 µM.

`O=C(Nc1nc2cc(-c3cc(F)cc(Cl)c3)ccc2[nH]1)c1cn2nc(OC3CCOCC3)ccc2n1` [Example 16] returned an IC50 of 0.289 µM.

`CN(C)CCOc1ccc2nc(C(=O)Nc3nc4cc(-c5ccc(Cl)c(C(F)(F)F)c5)ccc4[nH]3)cn2n1` [Example 63] came in with a half-inhibitory concentration (IC50) of 0.361 µM.

`CN(C)CCOc1ccc2nc(C(=O)Nc3nc4cc(-c5cc(F)cc(Cl)c5)ccc4[nH]3)cn2n1` [Example 15] registered an IC50 of 0.272 µM.

As for `CCOCCCOc1ccc2nc(C(=O)Nc3nc4cc(-c5cccc(C(F)(F)F)c5)ccc4[nH]3)cn2n1` [Example 13], the midpoint of inhibition, the IC50, lay at 0.368 µM.

Take `CO[C@@H]1CCN(c2ccc3nc(C(=O)Nc4nc5cc(-c6ccc(C)s6)ccc5[nH]4)cn3n2)C1` [Example 90]: the IC50 is 1.38 µM.

Compound `CNCCOc1ccc2nc(C(=O)Nc3nc4cc(-c5cc(F)cc(Cl)c5)ccc4[nH]3)cn2n1` [Example 14] yielded an IC50 of 0.152 µM.

For the compound `CNCCOc1ccc2nc(C(=O)Nc3nc4cc(-c5cccc(C(F)(F)F)c5)ccc4[nH]3)cn2n1` [Example 70], it took 0.381 µM to reach half-maximal inhibition (IC50).

As for `CC(C)N(CCOc1ccc2nc(C(=O)Nc3nc4cc(-c5cc(F)cc(Cl)c5)ccc4[nH]3)cn2n1)C(C)C` [Example 48], half-maximal inhibition (IC50) was put at 0.315 µM.

`O=C(Nc1nc2cc(-c3cccc(C(F)(F)F)c3)ccc2[nH]1)c1cn2nc(N3CCOCC3)ccc2n1` [Example 65] had a concentration for half-maximal inhibition (IC50) of 0.238 µM.

As for `CC(C)N(CCOc1ccc2nc(C(=O)Nc3nc4cc(-c5cccc(C(F)(F)F)c5)ccc4[nH]3)cn2n1)C(C)C` [Example 42], the IC50 came to 0.365 µM.

The compound `CC(C)OCCOc1ccc2nc(C(=O)Nc3nc4cc(-c5cccc(C(F)(F)F)c5)ccc4[nH]3)cn2n1` [Example 23] had an IC50 of 0.272 µM.

With `O=C(Nc1nc2cc(-c3cccc(C(F)(F)F)c3)ccc2[nH]1)c1cn2nc(N[C@H]3CCNC3)ccc2n1` [Example 78], the 50% inhibitory concentration (IC50) stood at 0.337 µM.

`O=C(Nc1nc2cc(-c3cccc(OC(F)(F)F)c3)ccc2[nH]1)c1cn2nc(OCCNC3CCCCC3)ccc2n1` [Example 33] had an IC50 of 0.278 µM.

The compound `CN1CCN(CCOc2ccc3nc(C(=O)Nc4nc5cc(-c6cc(F)cc(Cl)c6)ccc5[nH]4)cn3n2)CC1` [Example 55] displayed an IC50 of 0.212 µM.

`O=C(Nc1nc2cc(-c3cccc(OC(F)(F)F)c3)ccc2[nH]1)c1cn2nc(OCCN3CCCC3)ccc2n1` [Example 21] came in with an IC50 of 0.318 µM.

Take `O=C(Nc1nc2cc(-c3cccc(OC(F)(F)F)c3)ccc2[nH]1)c1cn2nc(OCCN3CCCCCC3)ccc2n1` [Example 34]: half-maximal inhibition (IC50) required 0.27 µM.

Turning to `CN(C)CCN(C)CCOc1ccc2nc(C(=O)Nc3nc4cc(-c5cccc(OC(F)(F)F)c5)ccc4[nH]3)cn2n1` [Example 36], the 50% inhibitory concentration (IC50) is 0.332 µM.

With `CN(CCOc1ccc2nc(C(=O)Nc3nc4cc(-c5cccc(C(F)(F)F)c5)ccc4[nH]3)cn2n1)c1ccccn1` [Example 44], 0.241 µM corresponded to half-maximal inhibition (IC50).

The compound `C[C@@H](N)COc1ccc2nc(C(=O)Nc3nc4cc(-c5cccc(C(F)(F)F)c5)ccc4[nH]3)cn2n1` [Example 73] returned an IC50 of 0.346 µM.

`CN(C)CCCOc1ccc2nc(C(=O)Nc3nc4cc(-c5cccc(C(F)(F)F)c5)ccc4[nH]3)cn2n1` [Example 72]: the IC50 was 0.216 µM.

Consider `CN(CCOc1ccc2nc(C(=O)Nc3nc4cc(-c5cccc(OC(F)(F)F)c5)ccc4[nH]3)cn2n1)c1ccccn1` [Example 37], for which inhibition was half-maximal at 0.322 µM (IC50).

Compound `CN(C)CCOCCOc1ccc2nc(C(=O)Nc3nc4cc(-c5cccc(C(F)(F)F)c5)ccc4[nH]3)cn2n1` [Example 59] had a 50% inhibitory concentration (IC50) of 0.194 µM.

Consider `CO[C@H]1CCN(c2ccc3nc(C(=O)Nc4nc5cc(-c6ccc(C)s6)ccc5[nH]4)cn3n2)C1` [Example 91], for which the half-maximal inhibitory concentration (IC50) worked out at 2.34 µM.

Consider `CC(C)NCCOc1ccc2nc(C(=O)Nc3nc4cc(-c5cccc(C(F)(F)F)c5)ccc4[nH]3)cn2n1` [Example 38], for which the IC50 is 0.27 µM.

`CCN(CC)CCCOc1ccc2nc(C(=O)Nc3nc4cc(-c5cc(F)cc(Cl)c5)ccc4[nH]3)cn2n1` [Example 20]: the 50% inhibitory concentration (IC50) is 0.205 µM.

`CC1CCC(c2ccc3[nH]c(NC(=O)c4cn5nc(N6CCOCC6)ccc5n4)nc3c2)CC1` (stereo not shown) [Example 81] yielded a half-maximal inhibitory concentration (IC50) of 0.393 µM.

A word on the IC50: it is the concentration that gives 50% inhibition. A high value points to weaker potency in that assay.
